## Cl.O=C(N[C@H]1CN2CCC1CC2)c1ccc2scnc2c1
  melting point: 170 to 180 °C

## Cl.O=C(N[C@@H]1CN2CCC1CC2)c1ccc2scnc2c1
  melting point: 166 to 176 °C

## Cl.O=C(N[C@H]1CN2CCC1CC2)c1ccc2ncsc2c1
  melting point: 285 °C (dec.)

## Cl.O=C(N[C@@H]1CN2CCC1CC2)c1cccc2cn[nH]c12
  melting point: 180 to 188 °C

Source: US8252811B2, “Indazoles, benzothiazoles, and benzoisothiazoles, and preparation and uses thereof” (Memory Pharmaceuticals Corporation, priority 2002, dated 2012)
